Source: ChEMBL document CHEMBL5506055, “Hit-to-Lead Optimization of the Natural Product Oridonin as Novel NLRP3 Inflammasome Inhibitors with Potent Anti-Inflammation Activity” (J Med Chem, 2024)
pIC50: −log10 of the molar value. Active and inactive are the calls of the source. The rule behind the calls is not given here.

Tests used:
[1] = molecular target: NACHT, LRR and PYD domains-containing protein 3 (Mus musculus) (UniProt Q8R4B8); assay: Inhibition of NLRP3 inflammasome activation in LPS/ATP-induced C57BL/6 mouse BMDMs assessed as inhibition of ASC oligomerization by measuring reduction in cleaved caspase-1 secretion at 50 to 200 nM preincubated with LPS for 4 hrs followed by compound addition for 30 mins and further stimulated with ATP for 30 mins by Western blotting analysis; format: cell-based; settings: BMDM, dose 50-200 nM, time 1.0 hrs
[2] = molecular target: NACHT, LRR and PYD domains-containing protein 3 (Mus musculus) (UniProt Q8R4B8); assay: Inhibition of NLRP3 inflammasome activation in LPS/nigericin-induced C57BL/6 mouse BMDMs at 200 nM preincubated with LPS for 4 hrs followed by compound addition for 30 mins and further stimulated with nigericin for 30 mins by ELISA; format: cell-based; settings: BMDM, time 1.0 hrs
[3] = Stability in rat plasma assessed as half life measured upto 8 hrs; format: ADME, cell-free
[4] = molecular target: NACHT, LRR and PYD domains-containing protein 3 (Mus musculus) (UniProt Q8R4B8); assay: Inhibition of NLRP3 inflammasome activation in LPS-induced C57BL/6 mouse BMDMs assessed as effect on p65 expression at 50 to 200 nM preincubated for 24 hrs followed by LPS addition for 4 hrs by Western blotting analysis; format: cell-based; settings: BMDM, dose 50-200 nM, time 28.0 hrs
[5] = molecular target: NACHT, LRR and PYD domains-containing protein 3 (Mus musculus) (UniProt Q8R4B8); assay: Inhibition of NLRP3 inflammasome activation in LPS-induced C57BL/6 mouse BMDMs assessed as reduction in IL-1beta level preincubated with Pam3CSK4 for 3 hrs followed by compound addition for 30 mins and further LPS transfected with Lipo-3000 for 16 hrs by ELISA; format: cell-based; settings: BMDM, dose 50-200 nM, time 16.5 hrs
[6] = Stability in mouse liver microsomes assessed as half life preincubated for 5 mins with NADPH followed by compound addition and measured upto 120 mins by LC-MS/MS analysis; format: ADME, Microsome; settings: time < 125 min
Mus musculus [7] = assay: Antiinflammatory activity in MSU-induced C57BL/6 mouse model of arthritis assessed as reduction in inflammatory cell infiltration at 12.5 to 25 mg/kg, iv measured after 24 hrs; format: functional, organism-based; settings: dose 12.5-25 mg/kg
[8] = molecular target: NACHT, LRR and PYD domains-containing protein 3 (Mus musculus) (UniProt Q8R4B8); assay: Inhibition of NLRP3 inflammasome activation in LPS-induced C57BL/6 mouse BMDMs assessed as reduction in pro-IL-1beta mRNA level at 50 to 200 nM preincubated for 24 hrs followed by LPS addition for 4 hrs by qRT-PCR analysis; format: cell-based; settings: BMDM, dose 50-200 nM, time 28.0 hrs
BMDM [9] = assay: Inhibition of mitochondrial damage in mouse BMDMs at 200 nM preincubated with LPS for 4 hrs followed by compound addition for 30 mins and further stimulated with ATP for 30 mins by confocal microscopic analysis; format: functional, cell-based; settings: time 1.0 hrs
[10] = Half-life in ICR mouse at 10 mg/kg, po measured upto 24 hrs by LC-MS/MS method; format: ADME, organism-based; settings: in vivo
[11] = molecular target: Voltage-gated inwardly rectifying potassium channel KCNH2 (Homo sapiens, UniProt Q12809); assay: Inhibition of human ERG expressed in CHO cells; format: toxicity, cell-based
[12] = molecular target: NACHT, LRR and PYD domains-containing protein 3 (Mus musculus) (UniProt Q8R4B8); assay: Inhibition of NLRP3 inflammasome activation in LPS/ATP-induced C57BL/6 mouse BMDMs assessed as reduction in IL-1beta secretion at 200 nM preincubated with LPS for 4 hrs followed by compound addition for 30 mins and further stimulated with ATP for 30 mins by ELISA relative to control; format: cell-based; settings: BMDM, time 1.0 hrs
[13] = Cmax in ICR mouse at 10 mg/kg, po measured upto 24 hrs by LC-MS/MS method; format: ADME, organism-based; settings: in vivo
[14] = molecular target: NACHT, LRR and PYD domains-containing protein 3 (Mus musculus) (UniProt Q8R4B8); assay: Inhibition of NLRP3 inflammasome activation in LPS/ATP-induced C57BL/6 mouse BMDMs assessed as reduction in IL-1beta secretion at 50 to 200 nM preincubated with LPS for 4 hrs followed by compound addition for 30 mins and further stimulated with ATP for 30 mins by Western blotting analysis relative to oridonin; format: cell-based; settings: BMDM, dose 50-200 nM, time 1.0 hrs
[15] = molecular target: NACHT, LRR and PYD domains-containing protein 3 (Mus musculus) (UniProt Q8R4B8); assay: Inhibition of NLRP3 inflammasome activation in LPS/MSU-induced C57BL/6 mouse BMDMs at 200 nM preincubated with LPS for 4 hrs followed by compound addition for 30 mins and further stimulated with MSU for 6 hrs by ELISA; format: cell-based; settings: BMDM, time 6.5 hrs
[16] = Stability in mouse plasma assessed as half life measured upto 8 hrs; format: ADME, cell-free
hERG (KCNH2) = hERG (KCNH2) (Homo sapiens, UniProt Q12809); assay: Inhibition of human ERG expressed in CHO cells at 40 uM relative to control; format: toxicity, cell-based; settings: CHO cells that express human ERG
Mus musculus [17] = assay: Antiinflammatory activity in C57BL/6 mouse model of arthritis assessed as reduction in MSU-induced pro-caspase 1 expression in joints at 12.5 to 25 mg/kg, iv measured upto 24 hrs; format: functional, organism-based; settings: dose 12.5-25 mg/kg
[18] = molecular target: NACHT, LRR and PYD domains-containing protein 3 (Mus musculus) (UniProt Q8R4B8); assay: Inhibition of NLRP3 inflammasome activation in LPS/ATP-induced C57BL/6 mouse BMDMs assessed as inhibition of ASC oligomerization by measuring reduction in IL-1beta secretion at 50 to 200 nM preincubated with LPS for 4 hrs followed by compound addition for 30 mins and further stimulated with ATP for 30 mins by Western blotting analysis; format: cell-based; settings: BMDM, dose 50-200 nM, time 1.0 hrs
[19] = molecular target: NACHT, LRR and PYD domains-containing protein 3 (Mus musculus) (UniProt Q8R4B8); assay: Binding affinity to NLRP3 in mouse BMDMs at 10^-2 to 10^3 uM incubated for 10 to 90 mins by ITDRF; format: cell-based; settings: BMDM, dose 0.01-1000 µM, time 10-90 min
BMDM [20] = assay: Inhibition of mitochondrial ROS production in mouse BMDMs at 200 nM preincubated with LPS for 4 hrs followed by compound addition for 30 mins and further stimulated with ATP for 30 mins by confocal microscopic analysis; format: functional, cell-based; settings: time 1.0 hrs
[21] = Hepatotoxicity in mouse assessed as change in AST/ALT ratio at 100 mg/kg, po or 12.5 to 25 mg/kg, iv; format: toxicity, organism-based; settings: in vivo
[22] = molecular target: NACHT, LRR and PYD domains-containing protein 3 (Mus musculus) (UniProt Q8R4B8); assay: Inhibition of NLRP3 inflammasome activation in LPS/ATP-induced C57BL/6 mouse BMDMs assessed as inhibition of ASC oligomerization by measuring reduction in pro-IL-1beta expression at 50 to 200 nM preincubated with LPS for 4 hrs followed by compound addition for 30 mins and further stimulated with ATP for 30 mins by Western blotting analysis; format: cell-based; settings: BMDM, dose 50-200 nM, time 1.0 hrs
[23] = molecular target: NLR family CARD domain-containing protein 4 (Mus musculus) (UniProt Q3UP24); assay: Inhibition of NLRC4 inflammasome activation in LPS/Poly(dA:dT)-induced C57BL/6 mouse BMDMs at 200 nM […] for 4 hrs followed by compound addition for 30 mins and further Poly(dA:dT) transfected with Lipo-3000 for 4 hrs; format: cell-based; settings: BMDM, time 4.5 hrs
[24] = molecular target: NACHT, LRR and PYD domains-containing protein 3 (Mus musculus) (UniProt Q8R4B8); assay: Inhibition of NLRP3 inflammasome activation in LPS-induced C57BL/6 mouse BMDMs assessed as effect on phosphorylated p65 expression at 50 to 200 nM preincubated for 24 hrs followed by LPS addition for 4 hrs by Western blotting analysis; format: cell-based; settings: BMDM, dose 50-200 nM, time 28.0 hrs
Mus musculus [25] = assay: Antiinflammatory activity in C57BL/6 mouse model of arthritis assessed as reduction in MSU-induced NLRP3 expression in joints at 12.5 to 25 mg/kg, iv measured upto 24 hrs; format: functional, organism-based; settings: dose 12.5-25 mg/kg
[26] = molecular target: Nlrp3/Pycard (Mus musculus) (UniProt Q8R4B8+Q9EPB4); assay: Inhibition of NLRP3/ASC protein-protein interaction in LPS/ATP-induced C57BL/6 mouse BMDMs at 200 nM preincubated with LPS for 4 hrs followed by compound addition for 30 mins and further stimulated with ATP for 30 mins by Western blotting analysis; format: cell-based; settings: BMDM, time 1.0 hrs
Nlrp3/Pycard (Mus musculus), sequence (Q8R4B8 whole entry, looked up): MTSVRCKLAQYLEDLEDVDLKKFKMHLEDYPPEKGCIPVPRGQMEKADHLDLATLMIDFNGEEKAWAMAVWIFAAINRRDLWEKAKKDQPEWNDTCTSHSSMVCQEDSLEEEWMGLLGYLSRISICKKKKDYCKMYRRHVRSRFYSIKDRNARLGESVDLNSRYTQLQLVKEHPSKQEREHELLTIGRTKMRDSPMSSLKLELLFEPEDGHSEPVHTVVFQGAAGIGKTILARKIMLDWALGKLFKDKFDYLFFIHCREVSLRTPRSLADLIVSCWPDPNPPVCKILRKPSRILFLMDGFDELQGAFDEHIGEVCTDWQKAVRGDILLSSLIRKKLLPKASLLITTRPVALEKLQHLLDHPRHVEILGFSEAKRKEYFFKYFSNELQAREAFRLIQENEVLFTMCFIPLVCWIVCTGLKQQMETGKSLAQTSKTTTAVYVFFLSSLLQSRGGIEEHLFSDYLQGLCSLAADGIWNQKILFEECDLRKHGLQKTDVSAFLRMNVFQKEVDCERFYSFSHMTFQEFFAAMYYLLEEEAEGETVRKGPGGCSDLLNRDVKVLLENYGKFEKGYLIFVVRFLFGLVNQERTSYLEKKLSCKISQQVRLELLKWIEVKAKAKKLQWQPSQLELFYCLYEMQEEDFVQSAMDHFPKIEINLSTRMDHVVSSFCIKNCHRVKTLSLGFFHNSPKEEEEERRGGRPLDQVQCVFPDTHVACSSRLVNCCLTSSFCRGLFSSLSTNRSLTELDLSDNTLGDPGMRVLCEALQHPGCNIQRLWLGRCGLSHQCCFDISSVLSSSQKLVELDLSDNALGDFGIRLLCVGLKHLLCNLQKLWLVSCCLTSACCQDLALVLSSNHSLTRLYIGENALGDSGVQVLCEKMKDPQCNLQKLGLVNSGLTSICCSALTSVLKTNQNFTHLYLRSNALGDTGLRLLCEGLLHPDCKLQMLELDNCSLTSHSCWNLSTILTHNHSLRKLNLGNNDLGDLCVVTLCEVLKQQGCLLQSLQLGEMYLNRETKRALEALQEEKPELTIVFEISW
Nlrp3/Pycard (Mus musculus), sequence (Q9EPB4 whole entry, looked up): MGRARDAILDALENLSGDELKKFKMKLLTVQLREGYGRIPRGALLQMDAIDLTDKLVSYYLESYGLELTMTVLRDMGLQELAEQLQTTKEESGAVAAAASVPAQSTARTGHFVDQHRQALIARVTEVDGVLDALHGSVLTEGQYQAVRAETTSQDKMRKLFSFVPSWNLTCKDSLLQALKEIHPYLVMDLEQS

NACHT, LRR and PYD domains-containing protein 3 (Mus musculus), sequence (Q8R4B8 whole entry, the tested form may be a part): as the sequence (Q8R4B8 whole entry, looked up) above
NLR family CARD domain-containing protein 4 (Mus musculus), sequence (Q3UP24 whole entry, the tested form may be a part): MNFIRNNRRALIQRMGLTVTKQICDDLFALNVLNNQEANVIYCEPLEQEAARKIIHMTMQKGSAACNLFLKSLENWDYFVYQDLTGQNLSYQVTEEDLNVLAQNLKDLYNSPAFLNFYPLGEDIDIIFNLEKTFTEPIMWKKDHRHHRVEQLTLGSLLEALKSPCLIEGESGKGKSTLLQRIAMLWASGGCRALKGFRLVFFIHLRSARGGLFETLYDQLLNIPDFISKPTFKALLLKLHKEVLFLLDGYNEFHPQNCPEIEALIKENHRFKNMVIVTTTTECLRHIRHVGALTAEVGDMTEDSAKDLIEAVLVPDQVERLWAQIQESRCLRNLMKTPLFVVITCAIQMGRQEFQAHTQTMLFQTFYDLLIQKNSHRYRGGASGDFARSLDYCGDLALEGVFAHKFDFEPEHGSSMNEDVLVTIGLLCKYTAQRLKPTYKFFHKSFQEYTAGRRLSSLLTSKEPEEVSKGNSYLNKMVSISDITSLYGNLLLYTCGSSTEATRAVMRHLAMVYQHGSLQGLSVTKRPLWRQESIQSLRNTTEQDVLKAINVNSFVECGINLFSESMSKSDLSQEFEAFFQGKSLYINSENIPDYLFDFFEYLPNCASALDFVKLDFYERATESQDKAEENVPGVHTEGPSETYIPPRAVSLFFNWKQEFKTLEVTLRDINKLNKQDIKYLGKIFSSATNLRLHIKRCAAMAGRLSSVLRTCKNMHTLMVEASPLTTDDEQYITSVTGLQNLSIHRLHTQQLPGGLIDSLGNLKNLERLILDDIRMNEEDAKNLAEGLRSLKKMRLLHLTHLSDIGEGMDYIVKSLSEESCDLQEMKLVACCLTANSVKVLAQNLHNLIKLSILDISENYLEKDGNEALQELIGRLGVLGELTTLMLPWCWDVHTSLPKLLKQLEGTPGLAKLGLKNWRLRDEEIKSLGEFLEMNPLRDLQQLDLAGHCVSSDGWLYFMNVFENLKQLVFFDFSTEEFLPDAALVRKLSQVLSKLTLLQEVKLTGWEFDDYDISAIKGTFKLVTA
hERG (KCNH2), sequence (Q12809 whole entry): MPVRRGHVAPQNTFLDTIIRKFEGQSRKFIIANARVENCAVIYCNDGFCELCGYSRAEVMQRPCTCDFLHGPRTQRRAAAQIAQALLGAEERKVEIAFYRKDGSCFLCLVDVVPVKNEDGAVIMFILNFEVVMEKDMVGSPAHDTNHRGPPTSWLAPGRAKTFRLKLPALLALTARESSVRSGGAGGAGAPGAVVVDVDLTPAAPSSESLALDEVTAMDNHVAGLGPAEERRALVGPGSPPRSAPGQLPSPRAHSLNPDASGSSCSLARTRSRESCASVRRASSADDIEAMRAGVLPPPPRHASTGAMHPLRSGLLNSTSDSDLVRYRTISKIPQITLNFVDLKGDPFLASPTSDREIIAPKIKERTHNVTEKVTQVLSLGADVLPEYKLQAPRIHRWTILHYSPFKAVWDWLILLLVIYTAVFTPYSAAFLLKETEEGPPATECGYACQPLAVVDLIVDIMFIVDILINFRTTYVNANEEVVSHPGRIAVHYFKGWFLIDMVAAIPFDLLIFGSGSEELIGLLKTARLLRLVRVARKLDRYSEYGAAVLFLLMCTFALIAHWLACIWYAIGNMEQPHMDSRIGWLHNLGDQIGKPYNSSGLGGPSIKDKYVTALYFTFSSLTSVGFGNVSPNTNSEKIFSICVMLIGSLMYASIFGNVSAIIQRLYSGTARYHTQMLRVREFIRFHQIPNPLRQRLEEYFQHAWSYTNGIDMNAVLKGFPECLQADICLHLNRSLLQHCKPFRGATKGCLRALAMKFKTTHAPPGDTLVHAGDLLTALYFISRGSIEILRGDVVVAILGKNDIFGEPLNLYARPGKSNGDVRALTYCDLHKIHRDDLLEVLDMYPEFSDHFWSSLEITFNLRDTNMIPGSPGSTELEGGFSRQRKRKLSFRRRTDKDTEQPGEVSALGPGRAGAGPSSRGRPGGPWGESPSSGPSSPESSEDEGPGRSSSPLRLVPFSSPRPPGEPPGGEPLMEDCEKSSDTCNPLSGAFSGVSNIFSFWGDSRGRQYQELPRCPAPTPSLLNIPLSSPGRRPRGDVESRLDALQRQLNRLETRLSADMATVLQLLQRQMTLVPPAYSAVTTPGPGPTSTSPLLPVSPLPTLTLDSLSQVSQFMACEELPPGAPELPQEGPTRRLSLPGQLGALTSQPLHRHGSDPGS
Voltage-gated inwardly rectifying potassium channel KCNH2, sequence (Q12809 whole entry, the tested form may be a part): as the sequence (Q12809 whole entry) above

In the case of `C=C1C(=O)[C@]23[C@H](O)[C@H]1CC[C@H]2[C@]12C=CCC(C)(C)[C@H]1[C@H](O)[C@@]3(OCCC(=O)O)OC2`, the inhibition [1] was “Active”, the inhibition [2] was “Active” and the half-life [3] was 6.21 h. For the same compound, the inhibition [4] was “inactive”, the inhibition [5] was “Dose-Dependent Effect” and the half-life [6] was 3.07 h. For the same compound, the Activity (Mus musculus [7]) was “Active”, the inhibition [8] was “inactive” and the inhibition (BMDM [9]) was “inactive”. For the same compound, the half-life [10] was 1.6 h, the pIC50 [11] was < 4.40 and the inhibition [12] was 87.5%. For the same compound, the Cmax [13] was 279 ng/mL, the inhibition [14] was “Active” and the inhibition [15] was “Active”. The half-life [16] was 15.2 h, the inhibition at 40 µM (hERG (KCNH2)) was 22% and the Activity (Mus musculus [17]) was “inactive”. For the same compound, the inhibition [18] was “Active”, the Activity [19] was “Active” and the inhibition (BMDM [20]) was “inactive”. The Activity [21] was “Non-Toxic”, the inhibition [22] was “inactive” and the inhibition [23] was “Active”. For the same compound, the inhibition [24] was “inactive”, the Activity (Mus musculus [25]) was “inactive” and the inhibition [26] was “Active”.
